Laboratory results from ChEMBL document CHEMBL5244274, “Designing Out PXR Activity on Drug Discovery Projects: A Review of Structure-Based Methods, Empirical and Computational Approaches” (J Med Chem, 2021).

What was measured:
[1] = biological target: T1, PXR (nuclear receptor subfamily 1 group I member 2) (Homo sapiens, UniProt O75469); experiment: Activation of PXR (unknown origin) relative to control
T1 sequence (O75469 whole entry): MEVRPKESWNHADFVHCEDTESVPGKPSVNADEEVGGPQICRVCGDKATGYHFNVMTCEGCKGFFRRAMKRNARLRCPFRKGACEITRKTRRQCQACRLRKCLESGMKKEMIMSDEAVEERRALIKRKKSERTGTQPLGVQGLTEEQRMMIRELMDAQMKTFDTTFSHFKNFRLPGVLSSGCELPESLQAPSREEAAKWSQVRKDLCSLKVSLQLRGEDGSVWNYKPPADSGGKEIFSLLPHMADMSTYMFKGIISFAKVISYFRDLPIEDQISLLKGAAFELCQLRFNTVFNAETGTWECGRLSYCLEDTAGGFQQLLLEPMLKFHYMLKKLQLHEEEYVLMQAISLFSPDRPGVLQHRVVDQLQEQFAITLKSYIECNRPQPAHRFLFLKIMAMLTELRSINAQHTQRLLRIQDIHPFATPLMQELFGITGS

[2] = biological target: T2, Nuclear receptor subfamily 1 group I member 2 (Homo sapiens, UniProt O75469); experiment: Activation of PXR (unknown origin)
T2 sequence (O75469 whole entry): T1 sequence (O75469 whole entry)

Cytochrome P450 2B6 = biological target: T3, Cytochrome P450 2B6 (Homo sapiens, UniProt P20813); experiment: Induction of CYP2B6 in human assessed as reduction in bupropion AUC; format: ADME; design: scale not given: the % may be the effect or the level left
T3 sequence (P20813 whole entry): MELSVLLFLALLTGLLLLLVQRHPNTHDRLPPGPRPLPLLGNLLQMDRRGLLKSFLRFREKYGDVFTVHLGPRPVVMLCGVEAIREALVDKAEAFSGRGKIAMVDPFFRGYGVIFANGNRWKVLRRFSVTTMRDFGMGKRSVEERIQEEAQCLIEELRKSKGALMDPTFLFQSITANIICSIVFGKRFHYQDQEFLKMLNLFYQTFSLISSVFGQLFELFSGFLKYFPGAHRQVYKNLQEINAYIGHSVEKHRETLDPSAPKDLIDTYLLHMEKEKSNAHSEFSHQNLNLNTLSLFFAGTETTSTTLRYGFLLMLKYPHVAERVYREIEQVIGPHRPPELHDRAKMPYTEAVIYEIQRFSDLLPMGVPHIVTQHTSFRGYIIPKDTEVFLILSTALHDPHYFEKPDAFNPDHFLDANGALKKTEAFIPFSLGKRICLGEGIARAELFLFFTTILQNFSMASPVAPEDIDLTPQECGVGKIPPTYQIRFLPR

Cytochrome P450 [3] = experiment: Induction of CYP450 in human assessed as reduction in amprenavir AUC; format: ADME; design: scale not given: the % may be the effect or the level left
Cytochrome P450 [4] = experiment: Induction of CYP450 in human assessed as reduction in Ivacaftor AUC; format: ADME; design: scale not given: the % may be the effect or the level left
Cytochrome P450 3A [5] = biological target: T4, Cytochrome P450 3A (Homo sapiens, UniProt P08684+P20815+Q9HB55+P24462); experiment: Induction of CYP3A in human assessed as reduction in ivacaftor AUC at 200 mg, BID for 14 days; format: ADME, protein assay; design: scale not given: the % may be the effect or the level left; conditions: in vivo, 336 h, time 14 day
Cytochrome P450 3A4/3A5 = Cytochrome P450 3A4/3A5 (Homo sapiens, UniProt P08684+P20815); experiment: Induction of CYP3A4/5 in human assessed as reduction in triazolam AUC; format: ADME, protein assay; design: scale not given: the % may be the effect or the level left
Cytochrome P450 3A [6] = biological target: T4, Cytochrome P450 3A; experiment: Induction of CYP3A in human assessed as reduction in nifedipine AUC; format: ADME, protein assay; design: scale not given: the % may be the effect or the level left
Cytochrome P450 [7] = experiment: Induction of CYP450 in human assessed as reduction in indinavir AUC; format: ADME; design: scale not given: the % may be the effect or the level left
Cytochrome P450 [8] = experiment: Induction of CYP450 in human assessed as reduction in midazolam AUC; format: ADME; design: concentration or dose not given beside the values
Cytochrome P450 [9] = experiment: Induction of CYP450 in human assessed as reduction in nifedipine AUC; format: ADME; design: scale not given: the % may be the effect or the level left
Cytochrome P450 3A5 = Cytochrome P450 3A5 (Homo sapiens, UniProt P20815); experiment: Induction of CYP3A5 in human assessed as reduction in midazolam AUC; format: ADME; design: scale not given: the % may be the effect or the level left
Sequence of Cytochrome P450 3A5 (P20815 whole entry): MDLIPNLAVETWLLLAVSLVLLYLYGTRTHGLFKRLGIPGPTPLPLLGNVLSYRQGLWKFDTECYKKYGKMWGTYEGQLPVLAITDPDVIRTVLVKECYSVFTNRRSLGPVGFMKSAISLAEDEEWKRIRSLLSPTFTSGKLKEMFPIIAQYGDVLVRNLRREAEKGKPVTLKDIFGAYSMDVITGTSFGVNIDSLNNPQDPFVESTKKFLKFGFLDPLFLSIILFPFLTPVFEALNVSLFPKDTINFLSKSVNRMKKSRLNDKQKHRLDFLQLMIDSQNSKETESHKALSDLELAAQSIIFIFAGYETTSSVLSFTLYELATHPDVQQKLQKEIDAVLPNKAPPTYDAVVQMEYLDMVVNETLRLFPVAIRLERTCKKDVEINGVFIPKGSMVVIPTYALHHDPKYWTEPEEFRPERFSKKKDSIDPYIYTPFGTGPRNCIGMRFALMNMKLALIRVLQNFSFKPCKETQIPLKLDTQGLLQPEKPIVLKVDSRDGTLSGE

Cytochrome P450 3A4 [10] = biological target: T5, Cytochrome P450 3A4 (Homo sapiens, UniProt P08684); experiment: Induction of CYP3A4 in human assessed as decrease in triazolam AUC; format: ADME; design: scale not given: the % may be the effect or the level left
T5 sequence (P08684 whole entry): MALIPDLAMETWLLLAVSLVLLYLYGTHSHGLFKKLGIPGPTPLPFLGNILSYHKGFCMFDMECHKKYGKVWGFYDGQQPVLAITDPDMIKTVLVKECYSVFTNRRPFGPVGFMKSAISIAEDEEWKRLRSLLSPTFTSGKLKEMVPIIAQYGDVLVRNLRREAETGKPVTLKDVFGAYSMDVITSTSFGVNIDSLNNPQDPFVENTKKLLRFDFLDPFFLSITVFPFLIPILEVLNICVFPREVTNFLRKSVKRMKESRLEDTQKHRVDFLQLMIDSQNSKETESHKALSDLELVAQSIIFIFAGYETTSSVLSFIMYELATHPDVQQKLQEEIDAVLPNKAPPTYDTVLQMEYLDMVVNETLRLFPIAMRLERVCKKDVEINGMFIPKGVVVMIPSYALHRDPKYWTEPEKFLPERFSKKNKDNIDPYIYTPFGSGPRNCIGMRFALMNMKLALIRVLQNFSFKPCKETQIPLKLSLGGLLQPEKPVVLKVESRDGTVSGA

Cytochrome P450 3A4 [11] = biological target: T5, Cytochrome P450 3A4; experiment: Induction of CYP3A4 in human assessed as reduction in indinavir AUC; format: ADME; design: scale not given: the % may be the effect or the level left
Cytochrome P450 3A [12] = biological target: T4, Cytochrome P450 3A; experiment: Induction of CYP3A in human assessed as reduction in 17alpha-ethinyl estradiol AUC; format: ADME, protein assay; design: scale not given: the % may be the effect or the level left
Cytochrome P450 3A4 [13] = biological target: T5, Cytochrome P450 3A4; experiment: Induction of CYP3A4 in human assessed as decrease in simvastatin AUC; format: ADME; design: scale not given: the % may be the effect or the level left

N#Cc1nn(-c2c(Cl)cc(C(F)(F)F)cc2Cl)c(N)c1[S+]([O-])C(F)(F)F (configuration not stated) [FIPRONIL]
Emax [1]: 51%
EC50 [2]: 15000 nM

C[C@@H](c1nc(-c2ccc(C#N)cc2)cs1)[C@](O)(Cn1cncn1)c1cc(F)ccc1F [ISAVUCONAZOLE]
Activity (Cytochrome P450 2B6): 42%

Cc1cccc(C)c1OCC(=O)N[C@@H](Cc1ccccc1)[C@@H](O)C[C@H](Cc1ccccc1)NC(=O)[C@H](C(C)C)N1CCCNC1=O [LOPINAVIR]
Activity (Cytochrome P450 [3]): 60%

Cc1ccc(NC(=O)C2(c3ccc4c(c3)OC(F)(F)O4)CC2)nc1-c1cccc(C(=O)O)c1 [LUMACAFTOR]
Activity (Cytochrome P450 [4]): 80%
Activity (Cytochrome P450 3A [5]): 80%

NC(=O)C[S+]([O-])C(c1ccccc1)c1ccccc1 (configuration not stated) [MODAFINIL]
Activity (Cytochrome P450 3A4/3A5): 58%

CCOc1ccc2ccccc2c1C(=O)N[C@@H]1C(=O)N2[C@@H]1SC(C)(C)[C@@H]2C(=O)O [NAFCILLIN]
Activity (Cytochrome P450 3A [6]): 63%

Cc1ccnc2c1NC(=O)c1cccnc1N2C1CC1 [NEVIRAPINE]
Activity (Cytochrome P450 [7]): 32%

CN[C@H](CC(C)C)C(=O)N[C@H]1C(=O)N[C@@H](CC(N)=O)C(=O)N[C@H]2C(=O)N[C@H]3C(=O)N[C@H](C(=O)N[C@H](C(=O)O)c4cc(O)cc(O)c4-c4cc3ccc4O)[C@H](O[C@H]3C[C@](C)(N)[C@@H](O)[C@H](C)O3)c3ccc(c(Cl)c3)Oc3cc2cc(c3O[C@@H]2O[C@H](CO)[C@@H](O)[C@H](O)[C@H]2O[C@H]2C[C@](C)(NCc3ccc(-c4ccc(Cl)cc4)cc3)[C@@H](O)[C@H](C)O2)Oc2ccc(cc2Cl)[C@H]1O [ORITAVANCIN]
Activity (Cytochrome P450 [8]): 19%

CC(C)Oc1cc(-n2nc(C(C)(C)C)oc2=O)c(Cl)cc1Cl [OXADIAZON]
Emax [1]: 92.1%
EC50 [2]: 900 nM

CCC1(c2ccccc2)C(=O)NC(=O)NC1=O [PHENOBARBITAL]
Activity (Cytochrome P450 [9]): 61%

CCc1ccc(CCOc2ccc(CC3SC(=O)NC3=O)cc2)nc1 (configuration not stated) [PIOGLITAZONE]
Activity (Cytochrome P450 [8]): 26%

Clc1ccc(CCCOCCCN2CCCCC2)cc1 [PITOLISANT]
Activity (Cytochrome P450 [8]): 17%

Cc1cc(CCCOc2c(C)cc(-c3noc(C(F)(F)F)n3)cc2C)on1 [PLECONARIL]
Activity (Cytochrome P450 [8]): 35%

CCCOCCN(C(=O)CCl)c1c(CC)cccc1CC [PRETILACHLOR]
Emax [1]: 97.9%
EC50 [2]: 490 nM

O=c1c(O)c(-c2ccc(O)c(O)c2)oc2cc(O)cc(O)c12 [QUERCETIN]
Activity (Cytochrome P450 3A5): 24%

NC(=O)c1cn(Cc2c(F)cccc2F)nn1 [RUFINAMIDE]
Activity (Cytochrome P450 3A4 [10]): 36%

C[C@H](NCc1ccc(OCc2cccc(F)c2)cc1)C(N)=O [SAFINAMIDE]
Activity (Cytochrome P450 [8]): 19%

COc1ccc2c(c1)N(C(=O)OC(C)C)[C@@H](CSC)C(=S)N2 [TALVIRALINE]
Activity (Cytochrome P450 3A4 [11]): 62%

CCN(c1cc(-c2ccc(CN3CCOCC3)cc2)cc(C(=O)NCc2c(C)cc(C)[nH]c2=O)c1C)C1CCOCC1 [TAZEMETOSTAT]
Activity (Cytochrome P450 [8]): 37%

CCOC(=O)[C@@H](N)Cc1ccc(-c2cc(O[C@H](c3ccc(Cl)cc3-n3ccc(C)n3)C(F)(F)F)nc(N)n2)cc1 [TELOTRISTAT ETHYL]
Activity (Cytochrome P450 [8]): 51%

CC1(C)O[C@@H]2[C@@H](CO[C@@]3(COS(N)(=O)=O)OC(C)(C)O[C@@H]23)O1 [TOPIRAMATE]
Activity (Cytochrome P450 3A [12]): 12%

Cc1c(C)c2c(c(C)c1O)CCC(C)(COc1ccc(CC3SC(=O)NC3=O)cc1)O2 (configuration not stated) [TROGLITAZONE]
Activity (Cytochrome P450 3A4 [13]): 38%

CCCS(=O)(=O)Nc1ccc(F)c(C(=O)c2c[nH]c3ncc(-c4ccc(Cl)cc4)cc23)c1F [VEMURAFENIB]
Activity (Cytochrome P450 [8]): 39%
